Patent publication US8507562B2, “Synthesis of (1)-beta-elemene, (-)-beta-elemenal, (-)-beta-elemenol, (-)-beta-elemene fluoride and their analogues, intermediates, and composition and uses thereof” (HYWE Pharmaceuticals, Inc., priority 2004, dated 2013)
In brackets after ≈: the same amount, converted by molar mass. Like-named read-outs stand apart in the source and are kept apart here. Each block holds one molecule with its values, some of them ahead of it.

How the values were obtained:
A549 lung cancer = experiment: MTT survival assay; details: 2 × 10^4 cells/ml
H-460 lung cancer = experiment: MTT survival assay; type: cell-based, human
Solubility comparison = type: physicochemical
U-87 brain tumor = experiment: MTT survival assay; type: cell-based, human; details: read-out: Cisplatin IC50; U-87; combination: Elemene at IC20 of the cell line
PC-3 prostate cancer = experiment: MTT survival assay; type: cell-based, human; details: read-out: Cisplatin IC50, combination: Elemene at IC20 of the cell line
A-172 brain tumor = experiment: MTT survival assay; type: cell-based, human; details: read-out: Cisplatin IC50; A-172; combination: Elemene at IC20 of the cell line
[1] = system: CCL-2 (Hela) cervical cancer; experiment: MTT survival assay; type: cell-based, human; details: read-out: Cisplatin IC50, combination: Elemene at IC20 of the cell line
H-69 lung cancer = experiment: MTT survival assay; type: cell-based, human; details: read-out: Cisplatin IC50, combination: Elemene at IC20 of the cell line
DU-145 prostate cancer = experiment: MTT survival assay; type: cell-based, human; details: read-out: Cisplatin IC50, combination: Elemene at IC20 of the cell line
MCAS ovarian cancer = experiment: MTT survival assay; type: cell-based, human; details: read-out: Cisplatin IC50, combination: Elemene at IC20 of the cell line
[2] = system: Colon Cancer Cells HCT-15; experiment: MTS cell viability assay; details: combinations with Elemene 160 μg/ml, n = 8
[3] = system: late-stage colorectal cancer; details: enema twice a day for 10 days; Elemene 200 mg (17 patients), 5-FU 500 mg (14 patients); cited from earlier work
[4] = system: Colon Cancer Cells Colo 205; experiment: MTS cell viability assay; details: Colo 205, drug alone
[5] = system: Colon Cancer Cells Caco-2; experiment: MTS cell viability assay; type: cell-based, human; details: combinations with Elemene 100 μg/ml, n = 8
[6] = system: Colon Cancer Cells HCT-116; experiment: MTS cell viability assay; type: cell-based, human; details: combinations with Elemene 160 μg/ml, n = 8
SKOV3/CIS cells = details: cited from earlier work

solubility relative to (−)-beta-elemene (Solubility comparison): more soluble than (−)-beta-elemene
Structure (SMILES): C=C[C@]1(C)CC[C@@H](C(=C)CO)C[C@H]1C(=C)C [(−)-beta-elemenol, (−)-Beta-elemenol]
IC50 (A549 lung cancer; A549, 24 h): 74.0 µg/mL (≈ 336 µM)
IC50 (A549 lung cancer; A549, 48 h): 60.1 µg/mL (≈ 273 µM)
IC50 (A549 lung cancer; A549, 72 h): 81.0 µg/mL (≈ 368 µM)
IC50 (H-460 lung cancer; H460, 24 h, 2 × 10^4 cells/ml): 111.0 µg/mL
IC50 (H-460 lung cancer; H460, 48 h, 2 × 10^4 cells/ml): 69.0 µg/mL
IC50 (H-460 lung cancer; H460, 72 h, 2 × 10^4 cells/ml): 74.5 µg/mL

Structure (SMILES): N.N.[Cl][Pt][Cl] [Cisplatin]
IC50 (U-87 brain tumor): 10 µM
IC50 (PC-3 prostate cancer): 80 µM
IC50 (A-172 brain tumor): 24 µM
IC50 (H-460 lung cancer; read-out: Cisplatin IC50, H-460, combination: Elemene at IC20 of the cell line): 80 µM
IC50 [1]: 27.5 µM
IC50 (H-69 lung cancer): 8 µM
IC50 (DU-145 prostate cancer): 384 µM
IC50 (MCAS ovarian cancer): 38 µM

IC50 ([2]; HCT-15, 4 hr/24 hr × 2): 40.0 ± 7.01 µg/mL
IC50 ([2]; HCT-15, 4 hr/24 hr × 3): 28.4 ± 7.62 µg/mL
IC50 ([2]; HCT-15, 4 hr/24 hr): 80.0 ± 13.6 µg/mL
IC50 ([2]; HCT-15, 8 hr): 68.1 ± 7.63 µg/mL
IC50 ([2]; HCT-15, 12 hr): 52.1 ± 5.09 µg/mL
IC50 ([2]; HCT-15, 48 hr): 18.4 ± 4.32 µg/mL
IC50 ([2]; HCT-15, 72 hr): 7.95 ± 3.80 µg/mL
IC50 ([4]; Time 4 hr, n = 8): 117 ± 9.02 µg/mL (≈ 899 µM)
IC50 ([4]; Time 4 hr/24 hr × 2, n = 8): 26.3 ± 5.34 µg/mL (≈ 202 µM)
IC50 ([4]; Time 4 hr/24 hr × 3, n = 8): 11.6 ± 4.13 µg/mL (≈ 89.2 µM)
IC50 ([4]; Time 4 hr/24 hr, n = 8): 34.6 ± 4.76 µg/mL (≈ 266 µM)
IC50 ([4]; Time 8 hr, n = 8): 91.3 ± 5.62 µg/mL (≈ 702 µM)
IC50 ([4]; Time 12 hr, n = 8): 36.7 ± 4.66 µg/mL (≈ 282 µM)
IC50 ([4]; Time 24 hr, n = 8): 21.1 ± 6.06 µg/mL (≈ 162 µM)
IC50 ([4]; Time 48 hr, n = 8): 13.2 ± 1.44 µg/mL (≈ 101 µM)
IC50 ([4]; Time 72 hr, n = 8): 11.0 ± 1.60 µg/mL (≈ 84.6 µM)
IC50 ([5]; Caco-2, 4 hr/24 hr × 2): 17.0 ± 3.29 µg/mL
IC50 ([5]; Caco-2, 4 hr/24 hr × 3): 13.8 ± 2.27 µg/mL
IC50 ([5]; Caco-2, 4 hr/24 hr): 28.8 ± 9.87 µg/mL
IC50 ([5]; Caco-2, 4 hr): 189 ± 27.1 µg/mL
IC50 ([5]; Caco-2, 8 hr): 102 ± 13.0 µg/mL
IC50 ([5]; Caco-2, 12 hr): 42.5 ± 9.84 µg/mL
IC50 ([5]; Caco-2, 24 hr): 23.9 ± 4.37 µg/mL
IC50 ([5]; Caco-2, 48 hr): 18.3 ± 2.83 µg/mL
IC50 ([5]; Caco-2, 72 hr): 12.6 ± 2.07 µg/mL
IC50 ([6]; HCT-116, 4 hr/24 hr × 2): 42.7 ± 4.78 µg/mL
IC50 ([6]; HCT-116, 4 hr/24 hr × 3): 22.4 ± 8.75 µg/mL
IC50 ([6]; HCT-116, 4 hr/24 hr): 85.1 ± 8.89 µg/mL
IC50 ([6]; HCT-116, 4 hr): 83.3 ± 12.1 µg/mL
IC50 ([6]; HCT-116, 8 hr): 43.1 ± 13.1 µg/mL
IC50 ([6]; HCT-116, 12 hr): 21.7 ± 3.70 µg/mL
IC50 ([6]; HCT-116, 24 hr): 11.8 ± 2.54 µg/mL
IC50 ([6]; HCT-116, 48 hr): 7.4 ± 1.82 µg/mL
IC50 ([6]; HCT-116, 72 hr): 4.5 ± 0.74 µg/mL
Structure (SMILES): O=c1[nH]cc(F)c(=O)[nH]1 [Lr 5-Fu]
CR [3]: CR: 57.1%
PR [3]: PR: 21.4%

Structure (SMILES): COc1ccc(CCN(C)CCCC(C#N)(c2ccc(OC)c(OC)c2)C(C)C)cc1OC (stereo not shown) [Verapamil]
enhancement of sensitivity to doxorubicin (SKOV3/CIS cells): 260 fold
